This passage reports inhibition results from US20100137313A1 (ASTRAZENECA AB, priority 2008, published 2010).

For the assay, the target named is S. pneumoniae Topoisomerase IV ATPase (ParE) (Streptococcus pneumoniae serotype 4, UniProt Q59961). Put plainly: S. pneumoniae Topoisomerase IV ATPase inhibition. It counts as biochemical. To be noted: values marked * are an average of two or more data points, read-out: % Inh (13 μM) of S. pneumoniae Topoisomerase IV ATPase. The procedure: S. pneumoniae Topoisomerase IV ATPase Inhibition Activity: Compounds may be tested for inhibition of S. pneumoniae ParE ATPase activity using an ammonium molybdate/malachite green-based phosphate detection assay (Lanzetta, P. A., L. J. Alvarez, P. S. Reinach, and O. A. Candia, 1979, 100: 95-97). Assays are performed in multiwell plates in 30 μl reactions containing: 20 mM Tris buffer pH 8.0, 50 mM ammonium acetate, 8.0 mM magnesium chloride, 0.5 mM ethylenediaminetetraacetic acid, 5% glycerol, 5 mM 1,4-Dithio-DL-threitol, 0.005% Brij-35, 5 μg/ml sheared salmon sperm DNA, 1.25 nM S. pneumoniae ParE, 160 μM ATP, and test compound in dimethylsulfoxide. Reactions are quenched with 30 μl of ammonium molybdate/malachite green detection reagent containing 1.2 mM malachite green hydrochloride, 8.5 mM ammonium molybdate tetrahydrate, and 1 M hydrochloric acid. Plates are read in an absorbance plate reader at 650 nm and percent inhibition values are calculated using dimethylsulfoxide (2%)-containing reactions as 0% inhibition and EDTA-containing ([…]) reactions as 100% inhibition controls. An IC50 measurement of compound potency for each compound can be determined from reactions performed in the presence of 10 different compound concentrations.
Chain of S. pneumoniae Topoisomerase IV ATPase (ParE) (Q59961 whole entry): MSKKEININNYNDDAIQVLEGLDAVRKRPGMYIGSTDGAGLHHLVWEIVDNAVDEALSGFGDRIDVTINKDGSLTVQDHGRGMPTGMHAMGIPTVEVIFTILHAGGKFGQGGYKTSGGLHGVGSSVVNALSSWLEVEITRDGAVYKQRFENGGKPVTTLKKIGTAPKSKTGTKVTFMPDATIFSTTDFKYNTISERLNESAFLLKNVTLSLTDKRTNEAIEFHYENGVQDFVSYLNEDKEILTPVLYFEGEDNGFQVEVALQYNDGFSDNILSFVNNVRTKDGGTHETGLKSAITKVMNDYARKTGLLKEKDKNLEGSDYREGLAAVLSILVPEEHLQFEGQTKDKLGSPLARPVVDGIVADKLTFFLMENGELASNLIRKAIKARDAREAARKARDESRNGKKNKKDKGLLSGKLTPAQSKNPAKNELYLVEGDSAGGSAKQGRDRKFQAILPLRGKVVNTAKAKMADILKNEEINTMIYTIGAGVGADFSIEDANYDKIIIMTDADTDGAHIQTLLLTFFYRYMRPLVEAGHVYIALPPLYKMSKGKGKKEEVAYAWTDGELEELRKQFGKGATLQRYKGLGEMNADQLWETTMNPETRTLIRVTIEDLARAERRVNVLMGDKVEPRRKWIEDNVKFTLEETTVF
Many of the compounds of the invention were tested in an assay substantially similar to the assays described above for measuring the inhibition of E.coli GyrB ATPase, E. coli Topoisomerase IV ATPase, S. aureus GyrB ATPase, and S. pneumoniae Topoisomerase IV ATPase, and had IC50 values of <200 μM in one or more assays.
Regarding `CNC(=O)C1CCN(c2nc(Nc3ccc(F)c(Cl)c3)ncc2-c2cncc(C(=O)O)c2)CC1` [Example 247, 5-[2-[(3-chloro-4-fluoprophenyl)amino]-4-[4-(methylcarbamoyl)-piperidin-1-yl]pyrimidin-5-yl]pyridine-3-carboxylic acid], the inhibition at 13 µM was 42.2%.
The value for `O=C(O)/C=C/c1cccc(-c2cnc(Nc3ccc(F)c(Cl)c3)nc2-n2cnc(Cl)c2Cl)c1` [Example 331, (2E)-3-(3-{2-[(3-chloro-4-fluorophenyl)amino]-4-(4,5-dichloro-1H-imidazol-1-yl)pyrimidin-5-yl}phenyl)prop-2-enoic acid] was 59.8%; that for `CNC(=O)CNC(=O)c1cncc(-c2cnc(Nc3ccc(F)c(Cl)c3)nc2-n2nc(C(F)(F)F)cc2C)c1` [Example 930, 5-(2-(3-chloro-4-fluorophenylamino)-4-(5-methyl-3-(trifluoromethyl)-1H-pyrazol-1-yl)pyrimidin-5-yl)-N-(2-(methylamino)-2-oxoethyl)nicotinamide] was 72%; that for `O=C(O)/C=C/c1cccc(-c2cnc(Nc3ccc(F)c(Cl)c3)nc2N2CCCC2)c1` [Example 294, (E)-3-(3-(2-(3-chloro-4-fluorophenylamino)-4-(pyrrolidin-1-yl)pyrimidin-5-yl)phenyl)acrylic acid] was 73.2%.
As for `O=C(O)c1cncc(-c2cnc(Nc3ccc(F)c(Cl)c3)nc2-n2ccc(C(F)(F)F)n2)c1` [Example 320, 5-{2-[(3-chloro-4-fluorophenyl)amino]-4-[3-(trifluoromethyl)-1H-pyrazol-1-yl]pyrimidin-5-yl}pyridine-3-carboxylic acid], the inhibition at 13 µM was found to be 101%.
Consider `Cc1cccc(Nc2ncc(-c3cccc(/C=C/C(=O)O)c3)c(-n3ccc(C(F)(F)F)n3)n2)c1` [Example 694, (2E)-3-(3-{2-[(3-methylphenyl)amino]-4-[3-(trifluoromethyl)-1H-pyrazol-1-yl]pyrimidin-5-yl}phenyl)prop-2-enoic acid], for which the inhibition at 13 µM came out at 100%.
In the case of `COc1cc(Nc2ncc(-c3cnc(OC)c(C(=O)NS(=O)(=O)c4cn(C)nc4C(F)(F)F)c3)c(-n3nc(C(F)(F)F)cc3C)n2)cc(OC)c1` [Example 845, 5-{2-[(3,5-dimethoxyphenyl)amino]-4-[5-methyl-3-(trifluoromethyl)-1H-pyrazol-1-yl]pyrimidin-5-yl}-2-methoxy-N-{[1-methyl-3-(trifluoromethyl)-1H-pyrazol-4-yl]sulfonyl}pyridine-3-carboxamide], the inhibition at 13 µM turned out to be 92%.
In the case of `Cc1cc(C(F)(F)F)nn1-c1nc(Nc2cccc(F)c2)ncc1-c1cncc(C(=O)O)c1` [Example 642, 5-{2-[(3-fluorophenyl)amino]-4-[5-methyl-3-(trifluoromethyl)-1H-pyrazol-1-yl]pyrimidin-5-yl}pyridine-3-carboxylic acid], the inhibition at 13 µM amounted to 100%.
Regarding `COc1ncc(-c2cnc(Nc3cc(C)cc(C)c3)nc2-n2ccc(C(F)(F)F)n2)cc1C(=O)NS(=O)(=O)C(C)C` [Example 826, 5-{2-[(3,5-dimethylphenyl)amino]-4-[3-(trifluoromethyl)-1H-pyrazol-1-yl]pyrimidin-5-yl}-2-methoxy-N-(propan-2-ylsulfonyl)pyridine-3-carboxamide], the inhibition at 13 µM was determined as 96%.
The value for `Cc1cc(C(F)(F)F)nn1-c1nc(Nc2ccc(F)c(Cl)c2)ncc1-c1cc(C(=O)O)c(=O)n(CCN2CCN(C(C)C)CC2)c1` [Example 1090, 5-(2-(3-chloro-4-fluorophenylamino)-4-(5-methyl-3-(trifluoromethyl)-1H-pyrazol-1-yl)pyrimidin-5-yl)-1-(2-(4-isopropylpiperazin-1-yl)ethyl)-2-oxo-1,2-dihydropyridine-3-carboxylic acid] was 100%.
`CCOC(=O)c1cncc(-c2cnc(Nc3ccc(F)c(Cl)c3)nc2N2CCN(CCOC)CC2)c1` [Example 150, ethyl 5-(2-(3-chloro-4-fluorophenylamino)-4-(4-(2-methoxyethyl)piperazin-1-yl)pyrimidin-5-yl)nicotinate]: the inhibition at 13 µM was 53.3%.
The value for `CCOC(=O)c1cncc(-c2cnc(Nc3ccc(F)c(Cl)c3)nc2NCCCN2CCCC2=O)c1` [Example 91, 5-{2-(3-Chloro-4-fluoro-phenylamino)-4-[3-(2-oxo-pyrrolidin-1-yl)-propylamino]-pyrimidin-5-yl}-nicotinic acid ethyl ester] was 83.1%; that for `COC(=O)c1cc(-c2cnc(Nc3ccc(F)c(Cl)c3)nc2-n2ccc(C(F)(F)F)n2)cnc1OC` [Example 1010, Methyl 5-(2-(3-chloro-4-fluorophenylamino)-4-(3-(trifluoromethyl)-1H-pyrazol-1-yl)pyrimidin-5-yl)-2-methoxynicotinate] was 81%; that for `Cc1cc(C)cc(Nc2ncc(-c3ccc4c(c3)C(=O)NS4(=O)=O)c(-n3nc(C(F)(F)F)cc3C)n2)c1` [Example 832, 5-{2-[(3,5-dimethylphenyl)amino]-4-[5-methyl-3-(trifluoromethyl)-1H-pyrazol-1-yl]pyrimidin-5-yl}-1,2-benzothiazol-3(2H)-one 1,1-dioxide] was 100%.
As for `CONC(=O)c1cncc(-c2cnc(Nc3ccc(F)c(Cl)c3)nc2-n2nc(-c3nccs3)cc2C)c1` [Example 545, 5-{2-[(3-chloro-4-fluorophenyl)amino]-4-[5-methyl-3-(1,3-thiazol-2-yl)-1H-pyrazol-1-yl]pyrimidin-5-yl}-N-methoxypyridine-3-carboxamide], the inhibition at 13 µM was 100%.
With `O=C(O)/C=C/c1cccc(-c2cnc(Nc3ccc(F)c([N+](=O)[O-])c3)nc2N2CCOCC2)c1` [Example 448], the inhibition at 13 µM was 82%.
For `Cc1cc(C(F)F)nn1-c1nc(Nc2ccc(F)c(Cl)c2)ncc1-c1cncc(C(N)=O)c1` [Example 538, 5-{2-[(3-chloro-4-fluorophenyl)amino]-4-[3-(difluoromethyl)-5-methyl-1H-pyrazol-1-yl]pyrimidin-5-yl}pyridine-3-carboxamide], the inhibition at 13 µM turned out to be 100%.
Regarding `O=C1CCCN1CCCNc1nc(Nc2ccc(F)c(Cl)c2)ncc1-c1cncnc1` [Example 34, 1-[3-[[2-[(3-chloro-4-fluorophenyl)amino]-5-pyrimidin-5-ylpyrimidin-4-yl]amino]propyl] pyrrolidin-2-one], the inhibition at 13 µM was 84.3%.
For the molecule `COc1cc(Nc2ncc(-c3cnc(OC)c(-c4n[nH]c(=O)o4)c3)c(-n3nc(C(F)(F)F)cc3C)n2)cc(OC)c1` [Example 805, 5-(5-{2-[(3,5-dimethoxyphenyl)amino]-4-[5-methyl-3-(trifluoromethyl)-1H-pyrazol-1-yl]pyrimidin-5-yl}-2-methoxypyridin-3-yl)-1,3,4-oxadiazol-2(3H)-one], the inhibition at 13 µM was 100%.
The value for `COc1ncc(-c2cnc(Nc3cc(Cl)cc(C#N)c3)nc2-n2nc(C(F)(F)F)cc2C)cc1C(=O)O` [Example 1122, 5-(2-(3-chloro-5-cyanophenylamino)-4-(5-methyl-3-(trifluoromethyl)-1H-pyrazol-1-yl)pyrimidin-5-yl)-2-methoxynicotinic acid] was 100%.
The value for `CN(C)CCCNc1nc(Nc2ccc(F)c(Cl)c2)ncc1-c1cc2ccccc2o1` [Example 9, 5-(benzofuran-2-yl)-N^2-(3-chloro-4-fluorophenyl)-N^4-(3-(dimethylamino)propyl)pyrimidine-2,4-diamine] was 60%; that for `C[C@@H](Nc1nc(Nc2ccc(F)c(Cl)c2)ncc1-c1cncc(C(=O)O)c1)C(=O)O` [Example 240, 5-[2-[(3-chloro-4-fluorophenyl)amino]-4-[[(2R)-1-hydroxy-1-oxopropan-2-yl]amino]pyrimidin-5-yl]pyridine-3-carboxylic acid] was 45.8%.
Turning to `CCOC(=O)/C=C/c1cccc(-c2cnc(Nc3ccc(F)c(Cl)c3)nc2-n2cccn2)c1` [Example 1112, ethyl (E)-3-[3-[2-[(3-chloro-4-fluorophenyl)amino]-4-pyrazol-1-ylpyrimidin-5-yl]phenyl]prop-2-enoate], the inhibition at 13 µM stood at 71%.
Turning to `O=C(O)c1cncc(-c2cnc(Nc3ccc(F)c(Cl)c3)nc2-n2cccc2)c1` [Example 311, 5-{2-[(3-chloro-4-fluorophenyl)amino]-4-(1H-pyrrol-1-yl)pyrimidin-5-yl}pyridine-3-carboxylic acid], the inhibition at 13 µM came to 81.8%.
The value for `O=C(O)c1cncc(-c2cnc(Nc3ccc(F)c(C(F)(F)F)c3)nc2N2CCOCC2)c1` [Example 437] was 75%.
With `CCn1cc(-c2cnc(Nc3ccc(F)c(Cl)c3)nc2-n2ccc(C(F)(F)F)n2)cc(C(=O)O)c1=O` [Example 1085, 5-(2-(3-Chloro-4-fluorophenylamino)-4-(3-(trifluoromethyl)-1H-pyrazol-1-yl)pyrimidin-5-yl)-1-ethyl-2-oxo-1,2-dihydropyridine-3-carboxylic acid], the inhibition at 13 µM stood at 100%.
The value for `COc1cc(Nc2ncc(-c3cncnc3)c(N[C@@H]3CCOC3)n2)cc(OC)c1` [Example 358, (R)-N^2-(3,5-dimethoxyphenyl)-N^4-(tetrahydrofuran-3-yl)-5,5′-bipyrimidine-2,4-diamine] was 63%.
